# Measurements: US20250101013A1, “FUNCTIONALIZED AMINOTHIAZOLES” (LEADXPRO AG, priority 2022, published 2025)
# Assays:
# Conditions in all cases: *Measured by radioligand binding
# human A1 receptor = human A1 receptor (Homo sapiens (Human), UniProt P30542); assay: Radioligand binding assay, A1 ([3H]-DPCPX, CHO-K1 membranes)
# Method: (§1) A filtration binding assay was performed for adenosine receptors A1, A2A, A2B and A3. Radioligand binding competition assay was done in duplicate in the wells of a 96-well plate (Master Block, Greiner, 786201) containing binding buffer, receptor membrane extracts, a fixed concentration of tracer, and test compound at increasing concentrations. In order to eliminate effect of buffer components, binding buffer was the same for all four receptors and contained: 50 mM Tris-HCl pH 7.4, 5 mM MgCl, 1 mM EDTA, 150 mM NaCl, 0.1% Na-azide, and 5 U/ml adenosine-deaminase. Nonspecific binding was minimized by co-incubation with 200-fold excess of cold competitor. In all radioligand binding experiments, the samples were incubated in a final volume of 0.1 ml of binding buffer for 60 minutes at 25° C. and then filtered over Unifilter plates (Perkin Elmer) pre-treated for 2 hours to limit tracer non-specific binding. Filters were washed five times with 0.5 ml of ice-cold washing buffer (50 mM Tris-HCl pH 7.4, 5 mM MgCl, 1 mM EDTA), and 50 μL of Microscint 20 (Perkin Elmer) were added to each filter. The plates were incubated 15 min at room temperature on an orbital shaker and then counted with a TopCount™ for 1 min/well.
# For A1 receptor, the assay was performed with [3H]-DPCPX and membranes from CHO-Kl cells transfected with human A1 receptor (Euroscreen FAST-001B).
# human A2B receptor = human A2B receptor (Homo sapiens (Human), UniProt P29275); assay: Radioligand binding assay, A2B ([3H]-DPCPX, HEK293 membranes)
# human A2B receptor, sequence (P29275 whole entry): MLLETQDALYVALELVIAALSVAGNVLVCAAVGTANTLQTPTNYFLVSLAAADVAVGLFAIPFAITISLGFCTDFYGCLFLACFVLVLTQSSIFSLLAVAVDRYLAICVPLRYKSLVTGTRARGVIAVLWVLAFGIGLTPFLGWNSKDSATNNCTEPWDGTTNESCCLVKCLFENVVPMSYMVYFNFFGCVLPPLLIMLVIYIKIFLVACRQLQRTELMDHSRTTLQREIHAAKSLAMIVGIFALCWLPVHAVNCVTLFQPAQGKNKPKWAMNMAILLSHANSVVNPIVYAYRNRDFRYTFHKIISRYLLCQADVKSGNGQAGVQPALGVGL
# Method: as §1
# For A2B receptor, the assay was carried with [3H]-DPCPX and membranes prepared from HEK293 cells transfected with human A2B receptor (Euroscreen FAST-003B).
# human A2A receptor = human A2A receptor (Homo sapiens (Human), UniProt P29274); assay: Radioligand binding assay, A2A ([3H]-NECA, HEK293 membranes)
# human A2A receptor, sequence (P29274 whole entry): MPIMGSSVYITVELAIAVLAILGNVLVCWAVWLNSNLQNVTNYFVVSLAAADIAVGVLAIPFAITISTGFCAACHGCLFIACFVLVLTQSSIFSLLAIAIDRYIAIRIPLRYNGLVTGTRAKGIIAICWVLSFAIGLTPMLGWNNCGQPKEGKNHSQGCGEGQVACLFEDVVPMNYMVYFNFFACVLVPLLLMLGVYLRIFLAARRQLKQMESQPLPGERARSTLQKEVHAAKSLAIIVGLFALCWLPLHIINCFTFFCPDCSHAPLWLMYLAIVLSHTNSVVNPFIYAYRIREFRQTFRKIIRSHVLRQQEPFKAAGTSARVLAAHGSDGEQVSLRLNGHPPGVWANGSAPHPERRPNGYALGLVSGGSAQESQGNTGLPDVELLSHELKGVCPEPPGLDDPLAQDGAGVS
# Method: as §1
# For A2A receptor, the assay was performed with [3H-NECA and membranes from HEK293 cells transfected with human A2A receptor (Euroscreen FAST-002B).
# human A3 receptor = human A3 receptor (Homo sapiens (Human), UniProt P0DMS8); assay: Radioligand binding assay, A3 ([125I]-MECA, CHO-K1 membranes)
# human A3 receptor, sequence (P0DMS8 whole entry): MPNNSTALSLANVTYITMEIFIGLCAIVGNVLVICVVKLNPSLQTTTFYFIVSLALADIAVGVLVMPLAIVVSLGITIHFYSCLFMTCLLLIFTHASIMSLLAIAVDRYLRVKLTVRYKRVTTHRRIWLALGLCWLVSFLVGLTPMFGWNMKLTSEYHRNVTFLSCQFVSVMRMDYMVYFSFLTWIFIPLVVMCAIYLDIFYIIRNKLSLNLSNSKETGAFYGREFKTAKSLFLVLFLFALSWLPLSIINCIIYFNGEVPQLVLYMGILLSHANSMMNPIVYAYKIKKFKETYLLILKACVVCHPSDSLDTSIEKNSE
# Method: as §1
# For A3 receptor, the assay was carried out with [125IJ-MECA and membranes from CHO-Kl cells transfected with human A3 receptor (Euroscreen FAST-004B).
# human A1 receptor, sequence (P30542 whole entry): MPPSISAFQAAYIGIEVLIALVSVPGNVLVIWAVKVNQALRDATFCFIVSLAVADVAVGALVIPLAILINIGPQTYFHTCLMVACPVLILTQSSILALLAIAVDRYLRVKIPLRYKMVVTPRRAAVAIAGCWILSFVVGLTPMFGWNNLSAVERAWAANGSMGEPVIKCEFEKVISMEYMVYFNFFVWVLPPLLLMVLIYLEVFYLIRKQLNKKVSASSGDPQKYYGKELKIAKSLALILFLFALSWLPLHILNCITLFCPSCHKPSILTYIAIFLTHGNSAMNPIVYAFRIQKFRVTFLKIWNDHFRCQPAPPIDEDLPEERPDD
compound,measurement,setting,value
"Fc1ccccc1-c1nc(Nc2n[nH]c(C3CCC3)n2)sc1-c1ccncc1F [Compound 1, 5-Cyclobutyl-N-[4-(2-fluorophenyl)-5-(3-fluoropyridin-4-yl)-1,3-thiazol-2-yl]-1H-1,2,4-triazol-3-amine]",EC50,human A1 receptor,< 5 nM
same,EC50,human A2B receptor,2.2 nM
same,EC50,human A2A receptor,> 10000 nM
same,EC50,human A3 receptor,> 10000 nM
